Experimental data reported in patent publication US8853234B2, “Quinolone analogs and methods related thereto” (Senhwa Biosciences, Inc., priority 2007, dated 2014).
pIC50: −log10 of the molar value. Read-outs that look alike come from different tables or passages of the source.

Assays:
[1] = tested on: A375 cell xenograft tumors; test: A375 cell xenograft tumor inhibition; type: in vivo, rodents; conditions: seven days
Procedure: (§1) Compounds A1, A2 and A3 also were tested for tumor inhibition in xenograft rodents. Rodents having A375 cell xenograft tumors were administered 100 mg/kg, 75 mg/kg and 100 mg/kg doses of Compound A1, A2 and A3, respectively, by oral delivery twice a day. […] Also, rodents having MiaPaCa xenograft tumors were administered 100 mg/kg doses of Compound A1 and A3 by oral delivery twice per day.

MiaPaCa xenograft tumors = test: MiaPaCa xenograft tumor inhibition; type: in vivo, rodents; conditions: 100 mg/kg oral twice per day, twenty-two days
Procedure: as §1

[2] = tested on: a variety of cell types that are representative of different cancers; test: Alamar Blue cell viability assay, variety of cell types representative of different cancers (Tables 12-14); type: cell-based; conditions: read-out: IC50
Procedure: A representative cell-proliferation assay protocol using Alamar Blue dye (stored at 4° C., use 20 ul per well) is described hereafter.
96-Well Plate Setup and Compound Treatment
a. Split and trypsinize cells.
b. Count cells using hemocytometer.
c. Plate 4,000-5,000 cells per well in 100 μl of medium and seed into a 96-well plate according to the following plate layout. Add cell culture medium only to wells B10 to B12. Wells B1 to B9 have cells but no compound added.
d. Add 100 μl of 2× drug dilution to each well in a concentration shown in the plate layout above. At the same time, add 100 μl of media into the control wells (wells B10 to B12). Total volume is 200 μl/well.
e. Incubate four (4) days at 37° C., 5% CO2 in a humidified incubator.
f. Add 20 μl Alamar Blue reagent to each well.
g. Incubate for four (4) hours at 37° C., 5% CO2 in a humidified incubator.
h. Record fluorescence at an excitation wavelength of 544 nm and emission wavelength of 590 nm using a microplate reader.
In the assays, cells are cultured with a test compound for approximately four days, the dye then is added to the cells and fluorescence of […] dye is detected after approximately four hours. Different types of cells can be utilized in the assays (e.g., HCT-116 human colorectal carcinoma cells, PC-3 human prostatic cancer cells and MiaPaca human pancreatic carcinoma cells). Anti-proliferative effects of representative compounds are provided hereafter.
(§2) Inhibitory activity on cell proliferation of Compounds A1, A2 and A3 was determined using an Alamar Blue cell viability assay (e.g., Example 39 herein) using a variety of cell types that are representative of different cancers Inhibition values (IC50) are presented in micromolar concentrations in the following table (Table 12).
as §2, with “representative compounds of the invention” for “Compounds A1, A2 and A3”, “Table 13 and Table 14.” for “the following table (Table 12).”

[3] = Homo sapiens, A-375, A375, Skin, Epithelial
[4] = Homo sapiens, BXPC-3, BXPC3, Pancreas, Epithelial
[5] = Homo sapiens, HCT-116, HCT-116, Colorectal, Epithelial
[6] = Homo sapiens, HL60/MX2, HL60/MX2, Hematopoetic, Lymphoma
[7] = Homo sapiens, HL-60, HL60, Hematopoetic, Lymphoma
[8] = Homo sapiens, HT-29, HT-29, Colorectal, Epithelial
[9] = Homo sapiens, Jurkat, Hematopoetic, Lymphoma
[10] = Homo sapiens, K562, K562, Hematopoetic, Lymphoblast
[11] = Homo sapiens, LNCaP, Prostate, Fibroblastoid
[12] = Homo sapiens, MCF7, MCF-7, Breast, Mammary carcinoma
[13] = Homo sapiens, MDA-MB-231, MDA-MB-231, Breast, Epithelial
[14] = Homo sapiens, MIA PaCa-2, Miapaca-2, Pancreas, Epithelial
[15] = Homo sapiens, NCI-H460, H460, Lung, Epithelial
[16] = Homo sapiens, NCI-H1299, H1299, Lung, NSCL
[17] = Homo sapiens, PANC-1, PANC-1, Pancreas, Epithelial
[18] = Homo sapiens, SAOS-2, Saos-2, Bone, Epithelial
[19] = Homo sapiens, SK-MES-1, SK-MES-1, Lung, Sqaumous carcinoma
[20] = Homo sapiens, SK-OV-3, SK-OV-3, Ovary, Epithelial
[21] = Homo sapiens, U2OS, Bone, Epithelial
[22] = Miapaca-R5, Pancreas, Epithelial

| Structure (SMILES) | A375 tumor growth inhibition relative to untreated control group ([1]; 100 mg/kg oral twice a day) | pIC50 [2, 3] | pIC50 [2, 4] | pIC50 [2, 5] | pIC50 [2, 6] | pIC50 [2, 7] | pIC50 [2, 8] | pIC50 [2, 9] | pIC50 [2, 10] | pIC50 [2, 11] | pIC50 [2, 13] | pIC50 [2, 14] | pIC50 [2, 15] | pIC50 [2, 16] | pIC50 [2, 18] | pIC50 [2, 19] | pIC50 [2, 20] | pIC50 [2, 21] | pIC50 [2, 22] | pIC50 ([2]; PC-3, Prostate, Epithelial) | also measured |
| --- | --- | --- | --- | --- | --- | --- | --- | --- | --- | --- | --- | --- | --- | --- | --- | --- | --- | --- | --- | --- | --- |
| Cc1cnc(CNC(=O)c2c(=O)c3ccc(N4CCN(C)CC4)nc3n3c2sc2ccccc23)cn1 [Compound A1] | significantly inhibited A375 tumor growth | 7.05 | 7.25 | 7.01 | 6.61 | 6.58 | 7.14 | 7.16 | 6.85 | 7.11 | 6.98 | 6.99 | 6.85 | 6.95 | 6.58 | 6.98 | 6.67 | 6.12 | 6.83 | 6.22 | MiaPaCa tumor growth inhibition relative to untreated control group (MiaPaCa xenograft tumors): significantly inhibited MiaPaCa tumor growth; pIC50 [2, 12]: 6.46; pIC50 [2, 17]: 6.83 |
| Cc1cnc(CNC(=O)c2c(=O)c3ccc(N4CCCN(C)CC4)nc3n3c2sc2ccccc23)cn1 [Compound A2] |  | 7.64 | 7.46 | 7.49 | 6.83 | 7.08 | 7.38 | 7.60 | 7.38 | 7.54 | 7.28 | 7.44 | 7.05 | 7.16 | 6.91 | 7.68 | 7.19 | 7.05 | 7.47 | 7.05 | A375 tumor growth inhibition relative to untreated control group ([1]; 75 mg/kg oral twice a day): significantly inhibited A375 tumor growth; pIC50 ([2]; Homo sapiens, COLO 205, COLO-205, Colorectal, Epithelial): 7.02 |
| O=C(NCCNC1CC1)c1c(=O)c2ccc(N3CCOCC3)nc2n2c1sc1ccccc12 [Compound A3] | significantly inhibited A375 tumor growth | 7.15 | 7.15 | 7.03 | 6.66 | 6.80 | 6.99 | 7.22 | 6.92 | 7.35 | 6.86 | 6.91 | 6.91 | 6.99 | 6.60 | 6.87 | 6.55 | 6.32 | 6.88 | 6.25 | MiaPaCa tumor growth inhibition relative to untreated control group (MiaPaCa xenograft tumors): significantly inhibited MiaPaCa tumor growth; pIC50 [2, 12]: 6.57; pIC50 [2, 17]: 6.99 |
